# Read-outs that look alike come from different tables or passages of the source. *1 amine or outer side, *2 acyl side, *3 side chain or, on linkers, in order; H or OH if unused. Where a SMILES comes first, the peptide text is derived from it. Side-chain parts run from the residue outwards. [ ]: non-standard residue; d: D form. The star is where a group is joined. αMePhe(2-F) = C[C@](N)(Cc1ccccc1F)C(=O)O; γGlu = O=C(O)[C@H](CCC(=O)[*:2])N[*:1]; C14 diacid = O=C(O)CCCCCCCCCCCCC(=O)*; αMeY = C[C@](N)(Cc1ccc(O)cc1)C(=O)O; αMeL = CC(C)C[C@](C)(N)C(=O)O; Orn = NCCC[C@H](N)C(=O)O; AEEA = NCCOCCOCC(=O)O; Aib = CC(C)(N)C(=O)O
# Assays:
# Assay type in all cases: cell-based
# [1] = molecular target: T1, hGIPR (Homo sapiens, UniProt P48546); assay: Functional cAMP formation (HTRF) in HEK-293 clonal cells expressing hGIPR, 0.1% bovine casein, without or with 1.0% human serum albumin; settings: 37° C.; for EC50: geometric mean, read-out: hGIPR EC50, nM (SEM, n); for Emax: percent of maximal response to GIP(1-42)NH2, read-out: hGIPR Emax, % ± SEM
# T1 construct: expressed in transfected cells
# T1 sequence (P48546 22-466): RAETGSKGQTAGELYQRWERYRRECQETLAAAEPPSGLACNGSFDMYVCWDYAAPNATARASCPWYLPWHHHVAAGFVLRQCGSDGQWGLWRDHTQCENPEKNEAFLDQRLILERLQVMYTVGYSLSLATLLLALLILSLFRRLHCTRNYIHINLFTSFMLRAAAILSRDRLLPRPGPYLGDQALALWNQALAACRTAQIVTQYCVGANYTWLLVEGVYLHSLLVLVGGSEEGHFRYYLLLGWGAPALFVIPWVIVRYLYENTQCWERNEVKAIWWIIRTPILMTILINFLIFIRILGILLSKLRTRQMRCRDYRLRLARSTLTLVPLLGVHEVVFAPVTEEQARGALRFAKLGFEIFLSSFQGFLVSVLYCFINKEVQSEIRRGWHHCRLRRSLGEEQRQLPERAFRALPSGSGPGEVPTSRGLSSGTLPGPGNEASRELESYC
# In short: (§1)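 Cells were stimulated with peptide for 30 min at 37° C, then intracellular cAMP was measured by competitive HTRF (665/620 nm ratio) and converted to nM using a cAMP standard curve. Relative EC50 and Emax came from four-parameter logistic fits of percent maximal response against peptide concentration.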
# [2] = molecular target: T2, hGCGR (Homo sapiens, UniProt P47871); assay: Functional cAMP formation (HTRF) in HEK-293 clonal cells expressing hGCGR, 0.1% bovine casein, without or with 1.0% human serum albumin; settings: 37° C., geometric mean, read-out: hGCGR EC50, nM (SEM, n)
# T2 construct: expressed in transfected cells
# T2 sequence (P47871 26-477): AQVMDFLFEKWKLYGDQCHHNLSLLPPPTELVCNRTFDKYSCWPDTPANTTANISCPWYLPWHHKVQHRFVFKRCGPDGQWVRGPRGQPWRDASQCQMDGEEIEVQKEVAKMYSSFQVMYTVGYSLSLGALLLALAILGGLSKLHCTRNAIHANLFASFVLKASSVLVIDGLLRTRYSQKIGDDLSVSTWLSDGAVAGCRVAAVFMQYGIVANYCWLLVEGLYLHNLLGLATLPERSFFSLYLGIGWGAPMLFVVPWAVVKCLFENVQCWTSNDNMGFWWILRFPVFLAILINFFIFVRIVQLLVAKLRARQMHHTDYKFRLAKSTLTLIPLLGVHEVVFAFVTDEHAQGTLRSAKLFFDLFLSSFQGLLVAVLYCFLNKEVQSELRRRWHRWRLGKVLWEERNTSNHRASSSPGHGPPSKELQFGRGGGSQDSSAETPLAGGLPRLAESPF
# In short: as §1
# [3] = molecular target: hGLP-1R (Homo sapiens, UniProt P43220); assay: Functional cAMP formation (HTRF) in HEK-293 clonal cells expressing hGLP-1R, 0.1% bovine casein, without or with 1.0% human serum albumin; parameters: expressed in transfected cells; settings: 37° C.; for Emax: percent of maximal response to GLP-1(7-36)NH2, read-out: hGLP-1R Emax, % ± SEM; for EC50: geometric mean, read-out: hGLP-1R EC50, nM (SEM, n)
# hGLP-1R, sequence (P43220 24-463): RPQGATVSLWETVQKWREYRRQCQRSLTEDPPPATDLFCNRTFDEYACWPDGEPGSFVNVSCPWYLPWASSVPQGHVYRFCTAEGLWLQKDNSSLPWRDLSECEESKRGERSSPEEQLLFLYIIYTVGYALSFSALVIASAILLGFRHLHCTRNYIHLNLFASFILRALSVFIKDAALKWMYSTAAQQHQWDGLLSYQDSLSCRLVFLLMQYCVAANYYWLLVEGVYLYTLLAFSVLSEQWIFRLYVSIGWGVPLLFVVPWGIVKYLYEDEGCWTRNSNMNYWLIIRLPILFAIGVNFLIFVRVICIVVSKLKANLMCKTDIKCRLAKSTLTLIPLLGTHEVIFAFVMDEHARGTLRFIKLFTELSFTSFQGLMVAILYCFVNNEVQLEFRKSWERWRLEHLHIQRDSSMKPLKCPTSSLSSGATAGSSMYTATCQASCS
# In short: as §1
# [4] = 0.1% bovine casein and 1.0% human serum albumin
# [5] = HEK293, 0.1% bovine casein and 1.0% human serum albumin
# [6] = HEK293, cAMP, 0.1% bovine casein, arithmetic mean
# [7] = cAMP, 0.1% bovine casein (no human serum albumin)
SMILES,"EC50 [1, 4] [nM]","Emax [1, 5] [%]","Emax [1, 6] [%]","EC50 [1, 7] [nM]","EC50 [2, 4] [nM]","EC50 [2, 7] [nM]","Emax [3, 5] [%]","Emax [3, 6] [%]","EC50 [3, 7] [nM]","EC50 [3, 4] [nM]"
CC[C@H](C)[C@H](NC(=O)[C@H](CC(C)C)NC(=O)[C@](C)(Cc1ccc(O)cc1)NC(=O)[C@@H](CCC(=O)O)NC(=O)[C@@H](NC(=O)[C@H](Cc1ccccc1)NC(=O)[C@H](CCC(=O)O)NC(=O)C(C)(C)NC(=O)[C@H](CCC(N)=O)NC(=O)[C@H](C)NC(=O)[C@H](CCCCNC(=O)COCCOCCNC(=O)COCCOCCNC(=O)CCCCCCCCCCCCC(=O)O)NC(=O)[C@H](CCCN)NC(=O)[C@H](CC(=O)O)NC(=O)[C@H](CC(C)C)NC(=O)[C@](C)(CC(C)C)NC(=O)[C@@H](NC(=O)[C@H](CO)NC(=O)[C@H](Cc1ccc2ccccc2c1)NC(=O)[C@H](CC(=O)O)NC(=O)[C@H](CO)NC(=O)[C@@H](NC(=O)[C@](C)(Cc1ccccc1F)NC(=O)[C@@H](NC(=O)CNC(=O)[C@H](CCC(=O)O)NC(=O)C(C)(C)NC(=O)[C@@H](N)Cc1ccc(O)cc1)[C@@H](C)O)[C@@H](C)O)[C@@H](C)CC)[C@@H](C)CC)C(=O)N[C@@H](CCCCNC(=O)COCCOCCNC(=O)COCCOCCNC(=O)CCCCCCCCCCCCC(=O)O)C(=O)NCC(=O)NCC(=O)N1CCC[C@H]1C(=O)N[C@@H](CO)C(=O)N[C@@H](CO)C(=O)NCC(=O)N[C@@H](C)C(=O)N1CCC[C@H]1C(=O)N1CCC[C@H]1C(=O)N1CCC[C@H]1C(=O)N[C@@H](CO)C(N)=O [Example 256],1.5,75.3,97.7,0.0175,> 9950,> 9950,95.5,95.4,0.249,–
CC[C@H](C)[C@H](NC(=O)[C@H](CCCN)NC(=O)[C@H](CC(=O)O)NC(=O)[C@H](CC(C)C)NC(=O)[C@](C)(CC(C)C)NC(=O)[C@@H](NC(=O)[C@H](CO)NC(=O)[C@H](Cc1ccc2ccccc2c1)NC(=O)[C@H](CC(=O)O)NC(=O)[C@H](CO)NC(=O)[C@@H](NC(=O)[C@](C)(Cc1ccccc1F)NC(=O)[C@@H](NC(=O)CNC(=O)[C@H](CCC(=O)O)NC(=O)C(C)(C)NC(=O)[C@@H](N)Cc1ccc(O)cc1)[C@@H](C)O)[C@@H](C)O)[C@@H](C)CC)C(=O)N[C@@H](C)C(=O)N[C@@H](CCC(N)=O)C(=O)NC(C)(C)C(=O)N[C@@H](CCCCNC(=O)COCCOCCNC(=O)COCCOCCNC(=O)CCCCCCCCCCCCC(=O)O)C(=O)N[C@@H](Cc1ccccc1)C(=O)N[C@H](C(=O)N[C@H](CCC(=O)O)C(=O)N[C@@](C)(Cc1ccc(O)cc1)C(=O)N[C@@H](CC(C)C)C(=O)N[C@H](C(=O)N[C@@H](CCC(=O)O)C(=O)NCC(=O)NCC(=O)N1CCC[C@H]1C(=O)N[C@@H](CO)C(=O)N[C@@H](CO)C(=O)NCC(=O)N[C@@H](C)C(=O)N1CCC[C@H]1C(=O)N1CCC[C@H]1C(=O)N1CCC[C@H]1C(=O)N[C@@H](CO)C(=O)N[C@@H](CCCCNC(=O)COCCOCCNC(=O)COCCOCCNC(=O)CCCCCCCCCCCCC(=O)O)C(N)=O)[C@@H](C)CC)[C@@H](C)CC [Example 258],–,–,90.3,0.0473,> 9950,> 9950,–,94.9,–,–
CC[C@H](C)[C@H](NC(=O)[C@H](CC(C)C)NC(=O)[C@](C)(Cc1ccc(O)cc1)NC(=O)[C@@H](CCC(=O)O)NC(=O)[C@@H](NC(=O)[C@H](Cc1ccccc1)NC(=O)[C@H](CCCCNC(=O)COCCOCCNC(=O)COCCOCCNC(=O)CC[C@H](NC(=O)CCCCCCCCCCCCC(=O)O)C(=O)O)NC(=O)C(C)(C)NC(=O)[C@H](CCC(N)=O)NC(=O)[C@H](C)NC(=O)[C@H](CCCCNC(=O)COCCOCCNC(=O)COCCOCCNC(=O)CC[C@H](NC(=O)CCCCCCCCCCCCC(=O)O)C(=O)O)NC(=O)[C@H](CCCN)NC(=O)[C@H](CC(=O)O)NC(=O)[C@H](CC(C)C)NC(=O)[C@](C)(CC(C)C)NC(=O)[C@@H](NC(=O)[C@H](CO)NC(=O)[C@H](Cc1ccc(OC)cc1)NC(=O)[C@H](CC(=O)O)NC(=O)[C@H](CO)NC(=O)[C@@H](NC(=O)[C@](C)(Cc1ccccc1F)NC(=O)[C@@H](NC(=O)CNC(=O)[C@H](CCC(=O)O)NC(=O)C(C)(C)NC(=O)[C@@H](N)Cc1ccc(O)cc1)[C@@H](C)O)[C@@H](C)O)[C@@H](C)CC)[C@@H](C)CC)C(=O)N[C@@H](CCC(=O)O)C(=O)NCC(=O)NCC(=O)N1CCC[C@H]1C(=O)N[C@@H](CO)C(=O)N[C@@H](CO)C(=O)NCC(=O)N[C@@H](C)C(=O)N1CCC[C@H]1C(=O)N1CCC[C@H]1C(=O)N1CCC[C@H]1C(=O)N[C@@H](CO)C(N)=O [Example 259] (H-Y[Aib]EGT[αMePhe(2-F)]TSDY(Me)SI[αMeL]LD[Orn]K([AEEA-AEEA-γGlu-C14 diacid])AQ[Aib]K([AEEA-AEEA-γGlu-C14 diacid])FI[dE][αMeY]LIEGGPSSGAPPPS-NH2),–,66.4,111,0.0198,> 9950,> 9950,–,–,0.362,28.9
CC[C@H](C)[C@H](NC(=O)[C@H](CC(C)C)NC(=O)[C@](C)(Cc1ccc(O)cc1)NC(=O)[C@@H](CCC(=O)O)NC(=O)[C@@H](NC(=O)[C@H](Cc1ccccc1)NC(=O)[C@H](CCC(=O)O)NC(=O)C(C)(C)NC(=O)[C@H](CCC(N)=O)NC(=O)[C@H](C)NC(=O)[C@H](CCCCNC(=O)COCCOCCNC(=O)COCCOCCNC(=O)CC[C@H](NC(=O)CCCCCCCCCCCCC(=O)O)C(=O)O)NC(=O)[C@H](CCCN)NC(=O)[C@H](CC(=O)O)NC(=O)[C@H](CC(C)C)NC(=O)[C@](C)(CC(C)C)NC(=O)[C@@H](NC(=O)[C@H](CO)NC(=O)[C@H](Cc1ccc(OC)cc1)NC(=O)[C@H](CC(=O)O)NC(=O)[C@H](CO)NC(=O)[C@@H](NC(=O)[C@](C)(Cc1ccccc1F)NC(=O)[C@@H](NC(=O)CNC(=O)[C@H](CCC(=O)O)NC(=O)C(C)(C)NC(=O)[C@@H](N)Cc1ccc(O)cc1)[C@@H](C)O)[C@@H](C)O)[C@@H](C)CC)[C@@H](C)CC)C(=O)N[C@@H](CCC(=O)O)C(=O)NCC(=O)NCC(=O)N1CCC[C@H]1C(=O)N[C@@H](CO)C(=O)N[C@@H](CO)C(=O)NCC(=O)N[C@@H](C)C(=O)N1CCC[C@H]1C(=O)N1CCC[C@H]1C(=O)N1CCC[C@H]1C(=O)N[C@@H](CO)C(=O)N[C@@H](CCCCNC(=O)COCCOCCNC(=O)COCCOCCNC(=O)CC[C@H](NC(=O)CCCCCCCCCCCCC(=O)O)C(=O)O)C(N)=O [Example 261],–,75.7,105,0.025,> 9950,> 9950,–,97.9,–,–
CC[C@H](C)[C@H](NC(=O)[C@H](CCCN)NC(=O)[C@H](CC(=O)O)NC(=O)[C@H](CC(C)C)NC(=O)[C@](C)(CC(C)C)NC(=O)[C@@H](NC(=O)[C@H](CO)NC(=O)[C@H](Cc1ccc(OC)cc1)NC(=O)[C@H](CC(=O)O)NC(=O)[C@H](CO)NC(=O)[C@@H](NC(=O)[C@](C)(Cc1ccccc1F)NC(=O)[C@@H](NC(=O)CNC(=O)[C@H](CCC(=O)O)NC(=O)C(C)(C)NC(=O)[C@@H](N)Cc1ccc(O)cc1)[C@@H](C)O)[C@@H](C)O)[C@@H](C)CC)C(=O)N[C@@H](C)C(=O)N[C@@H](CCC(N)=O)C(=O)NC(C)(C)C(=O)N[C@@H](CCC(=O)O)C(=O)N[C@@H](Cc1ccccc1)C(=O)N[C@H](C(=O)N[C@@H](CCCCNC(=O)COCCOCCNC(=O)COCCOCCNC(=O)CC[C@H](NC(=O)CCCCCCCCCCCCC(=O)O)C(=O)O)C(=O)N[C@@](C)(Cc1ccc(O)cc1)C(=O)N[C@@H](CC(C)C)C(=O)N[C@H](C(=O)N[C@@H](CCCCNC(=O)COCCOCCNC(=O)COCCOCCNC(=O)CC[C@H](NC(=O)CCCCCCCCCCCCC(=O)O)C(=O)O)C(=O)NCC(=O)NCC(=O)N1CCC[C@H]1C(=O)N[C@@H](CO)C(=O)N[C@@H](CO)C(=O)NCC(=O)N[C@@H](C)C(=O)N1CCC[C@H]1C(=O)N1CCC[C@H]1C(=O)N1CCC[C@H]1C(=O)N[C@@H](CO)C(N)=O)[C@@H](C)CC)[C@@H](C)CC [Example 262] (H-Y[Aib]EGT[αMePhe(2-F)]TSDY(Me)SI[αMeL]LD[Orn]IAQ[Aib]EFIK([AEEA-AEEA-γGlu-C14 diacid])[αMeY]LIK([AEEA-AEEA-γGlu-C14 diacid])GGPSSGAPPPS-NH2; N-terminus assumed),–,79.7,89.8,–,> 9950,> 9950,115,105,–,–

# From patent US20230265151A1, “GIP/GLP1 CO-AGONIST COMPOUNDS” (priority 2020, published 2023)
